pIC50: −log10 of the molar value.
Legend:
Caspase-1 = biological target: T1, Caspase-1 (Homo sapiens, UniProt P29466); assay: Inhibition of ICE
T1 sequence (P29466 whole entry): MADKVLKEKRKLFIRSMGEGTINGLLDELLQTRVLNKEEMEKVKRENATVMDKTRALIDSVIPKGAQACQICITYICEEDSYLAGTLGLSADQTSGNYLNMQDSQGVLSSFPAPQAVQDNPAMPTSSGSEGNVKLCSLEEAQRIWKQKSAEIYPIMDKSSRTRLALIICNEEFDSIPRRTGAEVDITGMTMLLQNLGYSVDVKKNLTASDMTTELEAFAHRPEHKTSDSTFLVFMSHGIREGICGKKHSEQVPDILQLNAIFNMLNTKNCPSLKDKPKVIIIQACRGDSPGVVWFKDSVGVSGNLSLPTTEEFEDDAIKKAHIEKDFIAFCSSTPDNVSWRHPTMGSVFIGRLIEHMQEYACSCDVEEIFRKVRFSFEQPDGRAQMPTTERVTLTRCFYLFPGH

Caspase-3 = biological target: T2, Caspase-3 (Homo sapiens, UniProt P42574); assay: Inhibition of caspase 3
T2 sequence (P42574 whole entry): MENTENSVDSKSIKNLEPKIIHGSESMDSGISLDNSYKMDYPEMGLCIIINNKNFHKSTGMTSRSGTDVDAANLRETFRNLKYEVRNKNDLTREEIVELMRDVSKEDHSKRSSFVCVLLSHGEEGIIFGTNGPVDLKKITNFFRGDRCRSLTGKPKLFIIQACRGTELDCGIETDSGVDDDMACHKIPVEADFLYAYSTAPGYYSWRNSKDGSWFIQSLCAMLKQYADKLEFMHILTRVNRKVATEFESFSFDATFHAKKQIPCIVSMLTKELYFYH

Caspase-8 = Caspase-8 (Homo sapiens, UniProt Q14790); assay: Inhibition of caspase 8
THP-1 = assay: Inhibition of IL1-beta production in THP1 cells; format: functional, cell-based; details: Homo sapiens
[1] = Half life in Sprague-Dawley rat at 30 mg/kg, po; format: ADME, organism-based; set-up: dose 30 mg/kg, route oral; details: in vivo
[2] = (§1) AUC (0 to infinity) in Sprague-Dawley rat at 30 mg/kg, po; format: ADME, organism-based, Plasma; set-up: time infinity, dose 30 mg/kg, route oral; details: Sprague-Dawley, plasma
[3] = Cmax in Sprague-Dawley rat at 30 mg/kg, po; format: ADME, organism-based; set-up: dose 30 mg/kg, route oral; details: in vivo
[4] = (§2) Bioavailability in Sprague-Dawley rat at 30 mg/kg, po; format: ADME, organism-based; details: Sprague-Dawley, in vivo
[5] = Cmax in Sprague-Dawley rat at 30 mg/kg, iv; format: ADME, organism-based; set-up: dose 30 mg/kg, route intravenous; details: in vivo
Rattus norvegicus [6] = assay: as §1; format: ADME, organism-based, Plasma; set-up: time infinity, dose 30 mg/kg, route oral; details: in vivo
Rattus norvegicus [7] = assay: as §2; format: ADME, organism-based; details: in vivo
[8] = Half life in Sprague-Dawley rat at 30 mg/kg, iv; format: ADME, organism-based; set-up: dose 30 mg/kg, route intravenous; details: in vivo
Rattus norvegicus [9] = assay: AUC (0 to infinity) in Sprague-Dawley rat at 30 mg/kg, iv; format: ADME, organism-based, Plasma; set-up: time infinity, dose 30 mg/kg, route intravenous; details: in vivo

Caspase-8, sequence (Q14790 217-374 limits assumed): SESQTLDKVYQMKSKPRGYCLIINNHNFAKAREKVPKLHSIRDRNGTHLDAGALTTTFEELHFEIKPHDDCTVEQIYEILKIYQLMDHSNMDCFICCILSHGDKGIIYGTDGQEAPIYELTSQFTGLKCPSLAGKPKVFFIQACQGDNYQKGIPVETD
Caspase-8, sequence (Q14790 385-479 limits assumed): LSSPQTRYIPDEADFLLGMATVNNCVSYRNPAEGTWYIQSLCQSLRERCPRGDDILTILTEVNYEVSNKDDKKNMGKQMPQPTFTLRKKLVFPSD

Compound	pIC50 (Caspase-1)	pIC50 (Caspase-3)	pIC50 (Caspase-8)	pIC50 (THP-1)	further results
O=C(CN1CC=CC[C@H](NC(=O)c2cccc(C(F)(F)F)c2)C1=O)N[C@H]1CC(=O)OC1O (some centres undefined)	7.96	< 5.00	5.71	6.26	–
CCOC1OC(=O)C[C@@H]1NC(=O)CN1CC(CNC(=O)c2ccc(OC)cc2)=CC[C@H](NC(=O)c2ccc3ccccc3c2)C1=O (some centres undefined)	–	–	–	–	half-life [1]: 426 min; AUC(0-inf) [2]: 30 ng·h/mL; Cmax [3]: 9 ng/mL
O=C[C@H](CC(=O)O)NC(=O)[C@@H]1CC[C@@H]2C/C=C\C[C@H](NC(=O)c3nccc4ccccc34)C(=O)N21	8.40	–	–	6.73	–
O=C(CN1CC=CC[C@H](NC(=O)c2ccccc2)C1=O)N[C@H]1CC(=O)OC1O (some centres undefined)	6.77	< 5.00	5.38	5.97	–
O=C(CN1CC=CC[C@H](NC(=O)c2cc3ccccc3s2)C1=O)N[C@H]1CC(=O)OC1O (some centres undefined)	7.70	< 5.00	5.84	6.15	–
O=C(CN1CC=CC[C@H](NC(=O)c2cccc(Cl)c2)C1=O)N[C@H]1CC(=O)OC1O (some centres undefined)	7.54	< 5.00	5.93	6.42	–
CCOC1OC(=O)C[C@@H]1NC(=O)CN1CC=CC[C@H](NC(=O)c2ccc3ccccc3c2)C1=O (some centres undefined)	–	–	–	–	half-life [1]: 204 min; AUC(0-inf) [2]: 21000 ng·h/mL; bioavailability [4]: > 90%; Cmax [3]: 9360 ng/mL
CCOC1OC(=O)C[C@@H]1NC(=O)[C@H](C)N1CC=CC[C@H](NC(=O)c2ccc3ccccc3c2)C1=O (some centres undefined)	–	–	–	–	half-life [1]: 306 min; AUC(0-inf) [2]: 4530 ng·h/mL; Cmax [3]: 720 ng/mL
C[C@H](C(=O)N[C@H]1CC(=O)OC1O)N1CC=CC[C@H](NC(=O)c2ccc3ccccc3c2)C1=O (some centres undefined)	7.89	< 5.00	6.27	6.06	–
O=C[C@H](CC(=O)O)NC(=O)[C@@H]1CCCN2C(=O)CC[C@H](NC(=O)c3nccc4ccccc34)C(=O)N12 [VRT-18858]	8.40	–	–	–	–
O=C(CN1CC=CC[C@H](NC(=O)c2nccc3ccccc23)C1=O)N[C@H]1CC(=O)OC1O (some centres undefined)	7.57	< 5.00	5.53	6.23	–
O=C(CN1CC/C=C\C[C@H](NC(=O)c2nccc3ccccc23)C1=O)N[C@H]1CC(=O)OC1O (some centres undefined)	7.11	–	–	–	–
O=C[C@H](CC(=O)O)NC(=O)[C@@H]1COC[C@@H]2C/C=C\C[C@H](NC(=O)c3nccc4ccccc34)C(=O)N21	8.52	–	–	6.74	–
O=C(CN1CC=CC[C@H](NC(=O)c2cc(Cl)ccc2Cl)C1=O)N[C@H]1CC(=O)OC1O (some centres undefined)	7.82	< 5.00	6.26	7.15	–

Continued, in another order:

pIC50 (Caspase-1)	pIC50 (Caspase-3)	pIC50 (Caspase-8)	pIC50 (THP-1)	Compound	further results
9.00	5.95	6.33	7.02	COc1ccc(C(=O)NCC2=CC[C@H](NC(=O)c3ccc4ccccc4c3)C(=O)N(CC(=O)N[C@H]3CC(=O)OC3O)C2)cc1 (some centres undefined)	–
8.10	< 5.00	5.79	5.89	O=C(CN1CC(CSCc2ccccc2)=CC[C@H](NC(=O)c2ccc3ccccc3c2)C1=O)N[C@H]1CC(=O)OC1O (some centres undefined)	–
7.72	< 5.00	5.57	6.82	CC1=CC[C@H](NC(=O)c2ccc3ccccc3c2)C(=O)N(CC(=O)N[C@H]2CC(=O)OC2O)C1 (some centres undefined)	–
9.00	5.97	6.35	6.61	COc1cccc(C(=O)NCC2=CC[C@H](NC(=O)c3ccc4ccccc4c3)C(=O)N(CC(=O)N[C@H]3CC(=O)OC3O)C2)c1 (some centres undefined)	–
8.70	5.77	5.96	6.33	O=C(CN1CC(CNC(=O)c2ccccc2)=CC[C@H](NC(=O)c2ccc3ccccc3c2)C1=O)N[C@H]1CC(=O)OC1O (some centres undefined)	–
7.28	< 5.00	5.91	5.91	COc1cccc(C(=O)N[C@H]2CC=CCN(CC(=O)N[C@H]3CC(=O)OC3O)C2=O)c1 (some centres undefined)	–
8.52	5.17	6.96	6.49	O=C(CN1CC(CNS(=O)(=O)c2ccccc2)=CC[C@H](NC(=O)c2ccc3ccccc3c2)C1=O)N[C@H]1CC(=O)OC1O (some centres undefined)	–
7.66	< 5.00	5.68	6.27	O=C(CN1CC(CO)=CC[C@H](NC(=O)c2ccc3ccccc3c2)C1=O)N[C@H]1CC(=O)OC1O (some centres undefined)	–
8.15	< 5.00	5.00	6.63	O=C(CN1CC(CNCc2ccccc2)=CC[C@H](NC(=O)c2ccc3ccccc3c2)C1=O)N[C@H]1CC(=O)OC1O (some centres undefined)	–
8.70	5.47	6.05	5.87	COc1ccccc1C(=O)NCC1=CC[C@H](NC(=O)c2ccc3ccccc3c2)C(=O)N(CC(=O)N[C@H]2CC(=O)OC2O)C1 (some centres undefined)	–
7.85	< 5.00	5.67	7.00	O=C(CN1CC=CC[C@H](NC(=O)c2ccc3ccccc3c2)C1=O)N[C@H]1CC(=O)OC1O (some centres undefined)	Cmax [5]: 6790 ng/mL; half-life [1]: 78 min; AUC (Rattus norvegicus [6]): 320 ng·h/mL; F (Rattus norvegicus [7]): 2%; Cmax [3]: 264 ng/mL; half-life [8]: 12 min; AUC (Rattus norvegicus [9]): 1970 ng·h/mL
9.00	5.12	6.79	7.44	C[C@@H](C(=O)N[C@H]1CC(=O)OC1O)N1CC=CC[C@H](NC(=O)c2ccc3ccccc3c2)C1=O (some centres undefined)	–

From ChEMBL document CHEMBL1146315, “Synthesis and evaluation of unsaturated caprolactams as interleukin-1beta converting enzyme (ICE) inhibitors” (Bioorg Med Chem, 2007)
